Laboratory results reported in the supplement of paper PMC10307832.

Tests used:
Assay in all cases: relative viability (nuclei count vs DMSO), 5 days (fraction); higher = more cells survive
201T = test system: 201T
Method in brief: (§1)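 Relative viability is defined as nuclei in treated wells over nuclei in vehicle wells. Duplicate plates were run and medians reported. Lung cancer cell lines in 1536-well plates were dosed by pin tool one day after seeding, with one drug or with a fixed anchor-drug dose plus five library-drug doses (not always all listed) in √10 steps, and nuclei were counted after 5 days.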

BEN = test system: BEN
Method in brief: as §1

EMC-BAC-2 = test system: EMC-BAC-2
Method in brief: as §1

HARA = test system: HARA
Method in brief: as §1

HCC-44 = test system: HCC-44
Method in brief: as §1

LCLC-103H = test system: LCLC-103H
Method in brief: as §1

LOU-NH91 = test system: LOU-NH91
Method in brief: as §1

NCI-H1395 = test system: NCI-H1395
Method in brief: as §1

NCI-H1666 = test system: NCI-H1666
Method in brief: as §1

NCI-H1993 = test system: NCI-H1993
Method in brief: as §1

NCI-H2009 = test system: NCI-H2009
Method in brief: as §1

NCI-H2023 = test system: NCI-H2023
Method in brief: as §1

NCI-H2087 = test system: NCI-H2087
Method in brief: as §1

NCI-H2126 = test system: NCI-H2126
Method in brief: as §1

NCI-H2347 = test system: NCI-H2347
Method in brief: as §1

NCI-H23 = test system: NCI-H23
Method in brief: as §1

NCI-H3122 = test system: NCI-H3122
Method in brief: as §1

NCI-H441 = test system: NCI-H441
Method in brief: as §1

NCI-H596 = test system: NCI-H596
Method in brief: as §1

NCI-H647 = test system: NCI-H647
Method in brief: as §1

NCI-H650 = test system: NCI-H650
Method in brief: as §1

NCI-H727 = test system: NCI-H727
Method in brief: as §1

NCI-H838 = test system: NCI-H838
Method in brief: as §1

## NC(=O)Nc1cc(-c2cccc(F)c2)sc1C(=O)N[C@H]1CCCNC1 [AZD7762] + Cc1cc(Nc2cc(N3CCN(C)CC3)nc(Sc3ccc(NC(=O)C4CC4)cc3)n2)n[nH]1 [Tozasertib] (partner 0.1 µM)
201T; first compound 0.01 µM
  relative viability: 0.957
201T; first compound 0.03162 µM
  relative viability: 0.935
201T; first compound 0.1 µM
  relative viability: 0.98
201T; first compound 0.3162 µM
  relative viability: 1.03
201T; first compound 1 µM
  relative viability: 0.801
BEN; first compound 0.01 µM
  relative viability: 0.521
BEN; first compound 0.03162 µM
  relative viability: 0.465
BEN; first compound 0.1 µM
  relative viability: 0.539
BEN; first compound 0.3162 µM
  relative viability: 0.507
BEN; first compound 1 µM
  relative viability: 0.486
EMC-BAC-2; first compound 0.01 µM
  relative viability: 0.295
EMC-BAC-2; first compound 0.03162 µM
  relative viability: 0.302
EMC-BAC-2; first compound 0.1 µM
  relative viability: 0.326
EMC-BAC-2; first compound 0.3162 µM
  relative viability: 0.321
EMC-BAC-2; first compound 1 µM
  relative viability: 0.282
HARA; first compound 0.01 µM
  relative viability: 0.113
HARA; first compound 0.03162 µM
  relative viability: 0.107
HARA; first compound 0.1 µM
  relative viability: 0.12
HARA; first compound 0.3162 µM
  relative viability: 0.103
HARA; first compound 1 µM
  relative viability: 0.0534
HCC-44; first compound 0.01 µM
  relative viability: 1.1
HCC-44; first compound 0.03162 µM
  relative viability: 0.87
HCC-44; first compound 0.1 µM
  relative viability: 0.714
HCC-44; first compound 0.3162 µM
  relative viability: 0.822
HCC-44; first compound 1 µM
  relative viability: 0.412
LCLC-103H; first compound 0.01 µM
  relative viability: 0.522
LCLC-103H; first compound 0.03162 µM
  relative viability: 0.442
LCLC-103H; first compound 0.1 µM
  relative viability: 0.524
LCLC-103H; first compound 0.3162 µM
  relative viability: 0.516
LCLC-103H; first compound 1 µM
  relative viability: 0.323
LOU-NH91; first compound 0.01 µM
  relative viability: 0.741
LOU-NH91; first compound 0.03162 µM
  relative viability: 0.701
LOU-NH91; first compound 0.1 µM
  relative viability: 0.665
LOU-NH91; first compound 0.3162 µM
  relative viability: 0.623
LOU-NH91; first compound 1 µM
  relative viability: 0.429
NCI-H1395; first compound 0.01 µM
  relative viability: 0.771
NCI-H1395; first compound 0.03162 µM
  relative viability: 0.851
NCI-H1395; first compound 0.1 µM
  relative viability: 0.742
NCI-H1395; first compound 0.3162 µM
  relative viability: 0.673
NCI-H1395; first compound 1 µM
  relative viability: 0.386
NCI-H1666; first compound 0.01 µM
  relative viability: 0.703
NCI-H1666; first compound 0.03162 µM
  relative viability: 0.748
NCI-H1666; first compound 0.1 µM
  relative viability: 0.68
NCI-H1666; first compound 0.3162 µM
  relative viability: 0.724
NCI-H1666; first compound 1 µM
  relative viability: 0.47
NCI-H1993; first compound 0.01 µM
  relative viability: 0.654
NCI-H1993; first compound 0.03162 µM
  relative viability: 0.579
NCI-H1993; first compound 0.1 µM
  relative viability: 0.628
NCI-H1993; first compound 0.3162 µM
  relative viability: 0.641
NCI-H1993; first compound 1 µM
  relative viability: 0.547
NCI-H2009; first compound 0.01 µM
  relative viability: 0.857
NCI-H2009; first compound 0.03162 µM
  relative viability: 0.703
NCI-H2009; first compound 0.1 µM
  relative viability: 0.688
NCI-H2009; first compound 0.3162 µM
  relative viability: 0.543
NCI-H2009; first compound 1 µM
  relative viability: 0.384
NCI-H2023; first compound 0.01 µM
  relative viability: 0.374
NCI-H2023; first compound 0.03162 µM
  relative viability: 0.307
NCI-H2023; first compound 0.1 µM
  relative viability: 0.227
NCI-H2023; first compound 0.3162 µM
  relative viability: 0.105
NCI-H2023; first compound 1 µM
  relative viability: 0.0751
NCI-H2087; first compound 0.01 µM
  relative viability: 0.24
NCI-H2087; first compound 0.03162 µM
  relative viability: 0.266
NCI-H2087; first compound 0.1 µM
  relative viability: 0.323
NCI-H2087; first compound 0.3162 µM
  relative viability: 0.285
NCI-H2087; first compound 1 µM
  relative viability: 0.232
NCI-H2126; first compound 0.01 µM
  relative viability: 0.889
NCI-H2126; first compound 0.03162 µM
  relative viability: 0.888
NCI-H2126; first compound 0.1 µM
  relative viability: 0.937
NCI-H2126; first compound 0.3162 µM
  relative viability: 0.831
NCI-H2126; first compound 1 µM
  relative viability: 0.454
NCI-H2347; first compound 0.01 µM
  relative viability: 0.62
NCI-H2347; first compound 0.03162 µM
  relative viability: 0.551
NCI-H2347; first compound 0.1 µM
  relative viability: 0.585
NCI-H2347; first compound 0.3162 µM
  relative viability: 0.567
NCI-H2347; first compound 1 µM
  relative viability: 0.521
NCI-H23; first compound 0.01 µM
  relative viability: 0.41
NCI-H23; first compound 0.03162 µM
  relative viability: 0.711
NCI-H23; first compound 0.1 µM
  relative viability: 0.558
NCI-H23; first compound 0.3162 µM
  relative viability: 0.33
NCI-H23; first compound 1 µM
  relative viability: 0.209
NCI-H3122; first compound 0.01 µM
  relative viability: 0.475
NCI-H3122; first compound 0.03162 µM
  relative viability: 0.412
NCI-H3122; first compound 0.1 µM
  relative viability: 0.402
NCI-H3122; first compound 0.3162 µM
  relative viability: 0.278
NCI-H3122; first compound 1 µM
  relative viability: 0.156
NCI-H441; first compound 0.01 µM
  relative viability: 0.801
NCI-H441; first compound 0.03162 µM
  relative viability: 0.907
NCI-H441; first compound 0.1 µM
  relative viability: 0.908
NCI-H441; first compound 0.3162 µM
  relative viability: 0.925
NCI-H441; first compound 1 µM
  relative viability: 0.587
NCI-H596; first compound 0.01 µM
  relative viability: 0.978
NCI-H596; first compound 0.03162 µM
  relative viability: 0.83
NCI-H596; first compound 0.1 µM
  relative viability: 0.847
NCI-H596; first compound 0.3162 µM
  relative viability: 0.946
NCI-H596; first compound 1 µM
  relative viability: 0.793
NCI-H647; first compound 0.01 µM
  relative viability: 0.379
NCI-H647; first compound 0.03162 µM
  relative viability: 0.218
NCI-H647; first compound 0.1 µM
  relative viability: 0.314
NCI-H647; first compound 0.3162 µM
  relative viability: 0.254
NCI-H647; first compound 1 µM
  relative viability: 0.0439
NCI-H650; first compound 0.01 µM
  relative viability: 0.71
NCI-H650; first compound 0.03162 µM
  relative viability: 0.643
NCI-H650; first compound 0.1 µM
  relative viability: 0.709
NCI-H650; first compound 0.3162 µM
  relative viability: 0.704
NCI-H650; first compound 1 µM
  relative viability: 0.526
NCI-H727; first compound 0.01 µM
  relative viability: 0.662
NCI-H727; first compound 0.03162 µM
  relative viability: 0.619
NCI-H727; first compound 0.1 µM
  relative viability: 0.525
NCI-H727; first compound 0.3162 µM
  relative viability: 0.596
NCI-H727; first compound 1 µM
  relative viability: 0.35
NCI-H838; first compound 0.01 µM
  relative viability: 0.269
NCI-H838; first compound 0.03162 µM
  relative viability: 0.299
NCI-H838; first compound 0.1 µM
  relative viability: 0.244
NCI-H838; first compound 0.3162 µM
  relative viability: 0.187
NCI-H838; first compound 1 µM
  relative viability: 0.128
